# Measurements as given in BindingDB's records for doi:10.1016/j.bmcl.2004.05.021 (University of Alberta, 2004).
# Target: Genome polyprotein 3C proteinase (Hepatitis A virus)
# Assay: Reversible inhibitory activity against Protease
row,IC50,SMILES
1,2000 nM,"CC(=O)N[C@@H](CC(C)C)C(=O)N[C@@H](C)C(=O)N[C@@H](C)C(=O)N[C@@H](C[C@@H]1CCNC1=O)C(=O)Cn1[nH]c(=O)c2c(F)c(F)c(F)c(F)c2c1=O [(S)-2-Acetylamino-4-methyl-pentanoic acid ((S)-1-{1-[(S)-2-oxo-1-((1S,4S)-2-oxo-pyrrolidin-3-ylmethyl)-3-(5,6,7,8-tetrafluoro-1,4-dioxo-3,4-dihydro-1H-phthalazin-2-yl)-propylcarbamoyl]-ethylcarbamoyl}-ethyl)-amide]"
2,1600 nM,"CC(=O)N[C@@H](CC(C)C)C(=O)N[C@@H](C)C(=O)N[C@@H](C)C(=O)N[C@@H](C[C@@H]1CCNC1=O)C(=O)Cn1[nH]c(=O)c2c([N+](=O)[O-])cccc2c1=O [(S)-2-Acetylamino-4-methyl-pentanoic acid ((S)-1-{1-[(S)-3-(5-nitro-1,4-dioxo-3,4-dihydro-1H-phthalazin-2-yl)-2-oxo-1-((1S,4S)-2-oxo-pyrrolidin-3-ylmethyl)-propylcarbamoyl]-ethylcarbamoyl}-ethyl)-amide]"
3,13000 nM,"CC(=O)N[C@@H](CC(C)C)C(=O)N[C@@H](C)C(=O)N[C@@H](C)C(=O)N[C@@H](CCC(=O)N(C)C)C(=O)Cn1[nH]c(=O)c2ccccc2c1=O [(S)-4-{(S)-2-[(S)-2-((S)-2-Acetylamino-4-methyl-pentanoylamino)-propionylamino]-propionylamino}-6-(1,4-dioxo-3,4-dihydro-1H-phthalazin-2-yl)-5-oxo-hexanoic acid dimethylamide]"
